The conditions of test [1]: known interaction (K) listed by CLARITY, cited from earlier work.
Test [2] has as its system 382 unique human kinases. The test is described as follows: biochemical. It is filed as biochemical. Conditions: cutoff of >85% inhibition at 10 μM; luminespib and ganetespib large kinome panel, others 16-kinase panel.
The target of the next test is T1, FYN (Homo sapiens, UniProt P06241).
T1 construct: purchased Reaction Biology (HotSpot contract assay)
Put plainly: HotSpot in vitro kinase radiometric assay. The test is classed as biochemical. The note with it: 10uM, ATP 30 uM, Data 1, Data 2; for remaining activity at 10 µM: read-out: % Enzyme Activity (relative to DMSO controls), FYN.

The target in another test is T2, ABL2/ARG (Homo sapiens, UniProt P42684).
T2 construct: purchased Reaction Biology (HotSpot contract assay)
T2 sequence (P42684 whole entry): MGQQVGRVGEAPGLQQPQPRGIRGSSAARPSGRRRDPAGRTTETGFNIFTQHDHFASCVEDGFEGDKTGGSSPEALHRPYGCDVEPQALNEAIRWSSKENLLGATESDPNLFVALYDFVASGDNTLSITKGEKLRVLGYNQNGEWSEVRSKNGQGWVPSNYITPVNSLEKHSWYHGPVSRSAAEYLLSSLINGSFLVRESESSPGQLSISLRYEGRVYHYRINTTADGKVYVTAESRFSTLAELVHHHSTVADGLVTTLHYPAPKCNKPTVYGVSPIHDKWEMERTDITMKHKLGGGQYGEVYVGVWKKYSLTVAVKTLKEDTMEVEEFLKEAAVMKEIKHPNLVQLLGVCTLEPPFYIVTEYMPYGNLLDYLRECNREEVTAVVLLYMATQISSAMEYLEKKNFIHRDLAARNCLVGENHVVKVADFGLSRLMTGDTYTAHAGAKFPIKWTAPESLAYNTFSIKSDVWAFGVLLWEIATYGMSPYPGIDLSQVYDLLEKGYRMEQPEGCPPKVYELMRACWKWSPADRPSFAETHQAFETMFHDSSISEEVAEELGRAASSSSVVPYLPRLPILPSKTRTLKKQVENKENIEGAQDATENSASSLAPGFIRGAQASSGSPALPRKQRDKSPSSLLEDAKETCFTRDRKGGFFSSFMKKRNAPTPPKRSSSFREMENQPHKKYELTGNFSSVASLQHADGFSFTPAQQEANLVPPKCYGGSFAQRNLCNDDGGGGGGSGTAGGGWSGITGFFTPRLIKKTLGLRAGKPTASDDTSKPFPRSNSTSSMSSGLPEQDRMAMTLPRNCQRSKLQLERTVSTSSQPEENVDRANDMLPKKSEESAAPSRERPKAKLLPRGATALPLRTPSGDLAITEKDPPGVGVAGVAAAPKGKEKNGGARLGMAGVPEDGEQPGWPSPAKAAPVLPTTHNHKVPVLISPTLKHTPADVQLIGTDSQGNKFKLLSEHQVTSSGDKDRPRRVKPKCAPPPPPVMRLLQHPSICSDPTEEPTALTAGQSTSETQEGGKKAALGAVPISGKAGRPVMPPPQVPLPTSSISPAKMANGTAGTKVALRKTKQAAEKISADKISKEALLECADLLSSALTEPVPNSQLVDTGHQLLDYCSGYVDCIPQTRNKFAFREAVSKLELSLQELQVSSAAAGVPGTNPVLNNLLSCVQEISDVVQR
Put plainly: HotSpot in vitro kinase radiometric assay. Conditions: 10uM, ATP 30 uM, Data 1, Data 2; for remaining activity at 10 µM: read-out: % Enzyme Activity (relative to DMSO controls), ABL2/ARG. It is filed as biochemical.

In another test the test system is 16-kinase panel. The test is described as follows: 16-kinase panel screening, in vitro radiometric assay. The test is classed as biochemical, human. Conditions: 10 μM.
Another test concerns the target T3, TRKA (Homo sapiens, UniProt P04629).
T3 construct: purchased Reaction Biology (HotSpot contract assay)
The test is described as follows: HotSpot in vitro kinase radiometric assay. It is filed as biochemical. Conditions: 10uM, ATP 100 uM, Data 1, Data 2; for remaining activity at 10 µM: read-out: % Enzyme Activity (relative to DMSO controls), TRKA. An excerpt: (§1) Accordingly, we selected five additional representative HSP90 inhibitors, at least one from each chemical class, including both synthetic inhibitors and natural products.
(§2) Accordingly, we screened the hit compound and the two leads for kinase off-target inhibition using the 16-kinase panel and the same in vitro catalytic assay used previously.
(§3) This radioisotope binding assay was designed to directly detect the true product without the use of modified substrates, coupling enzymes, or detection antibodies thus enabling to directly measure inhibition of catalytic activity. Test or control compounds were incubated with kinase, substrate, cofactors, and radioisotope-labeled ATP (32P-ɣ-ATP or 33P-ɣ-ATP). The reaction mixtures were then spotted onto filter papers, which bind the radioisotope-labeled catalytic product.

The target in the next test is T4, PASK (Homo sapiens, UniProt Q96RG2).
T4 construct: purchased Reaction Biology (HotSpot contract assay)
T4 sequence (Q96RG2 whole entry): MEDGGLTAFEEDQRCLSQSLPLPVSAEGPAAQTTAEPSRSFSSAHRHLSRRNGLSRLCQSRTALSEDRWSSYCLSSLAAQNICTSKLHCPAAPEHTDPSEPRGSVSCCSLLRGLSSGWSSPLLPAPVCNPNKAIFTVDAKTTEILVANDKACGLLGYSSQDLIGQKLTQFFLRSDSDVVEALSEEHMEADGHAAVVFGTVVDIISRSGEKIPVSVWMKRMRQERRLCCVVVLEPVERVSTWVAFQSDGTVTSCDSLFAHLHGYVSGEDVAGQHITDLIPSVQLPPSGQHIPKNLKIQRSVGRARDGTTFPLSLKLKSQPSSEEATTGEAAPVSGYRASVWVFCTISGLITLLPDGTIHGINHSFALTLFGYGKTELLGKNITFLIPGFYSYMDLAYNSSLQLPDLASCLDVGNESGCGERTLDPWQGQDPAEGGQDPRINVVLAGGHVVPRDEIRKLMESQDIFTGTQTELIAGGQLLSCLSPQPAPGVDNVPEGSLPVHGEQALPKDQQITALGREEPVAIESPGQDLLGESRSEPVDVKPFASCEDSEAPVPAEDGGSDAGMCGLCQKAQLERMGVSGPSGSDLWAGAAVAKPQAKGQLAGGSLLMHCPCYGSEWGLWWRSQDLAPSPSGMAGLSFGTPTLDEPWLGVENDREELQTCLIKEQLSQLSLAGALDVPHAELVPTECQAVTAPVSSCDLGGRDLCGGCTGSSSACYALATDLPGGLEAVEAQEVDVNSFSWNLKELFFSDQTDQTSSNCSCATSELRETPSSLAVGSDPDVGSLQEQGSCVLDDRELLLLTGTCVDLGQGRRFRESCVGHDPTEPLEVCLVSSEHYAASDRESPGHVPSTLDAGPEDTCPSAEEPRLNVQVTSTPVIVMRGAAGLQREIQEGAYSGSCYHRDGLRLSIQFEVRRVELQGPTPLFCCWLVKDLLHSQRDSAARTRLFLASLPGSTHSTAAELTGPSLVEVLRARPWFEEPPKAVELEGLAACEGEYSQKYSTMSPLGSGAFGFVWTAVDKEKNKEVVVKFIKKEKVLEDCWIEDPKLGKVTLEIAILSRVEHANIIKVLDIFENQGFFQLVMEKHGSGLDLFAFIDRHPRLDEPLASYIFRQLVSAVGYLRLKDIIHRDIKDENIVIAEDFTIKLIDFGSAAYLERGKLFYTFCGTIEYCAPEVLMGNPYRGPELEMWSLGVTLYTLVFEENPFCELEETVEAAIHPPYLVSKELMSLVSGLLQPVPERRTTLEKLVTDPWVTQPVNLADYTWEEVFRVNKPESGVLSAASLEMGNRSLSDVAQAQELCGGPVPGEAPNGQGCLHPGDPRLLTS
The test is described as follows: HotSpot in vitro kinase radiometric assay. The test is classed as biochemical. Conditions: 10uM, ATP 50 uM, Data 1, Data 2; for remaining activity at 10 µM: read-out: % Enzyme Activity (relative to DMSO controls), PASK.
Source text: as §1, §2, §3

The next test has as its target ABL1 (Homo sapiens, UniProt P00519). Put plainly: HotSpot in vitro kinase radiometric assay. It is filed as biochemical. Also on record: purchased Reaction Biology (HotSpot contract assay). Conditions: 10uM, ATP 40 uM, Data 1, Data 2; for remaining activity at 10 µM: read-out: % Enzyme Activity (relative to DMSO controls), ABL1.
The next test has as its target T5, LCK (Homo sapiens, UniProt P06239).
T5 construct: purchased Reaction Biology (HotSpot contract assay)
Put plainly: HotSpot in vitro kinase radiometric assay. The test is classed as biochemical. The note with it: 10uM, ATP 15 uM, Data 1, Data 2; for remaining activity at 10 µM: read-out: % Enzyme Activity (relative to DMSO controls), LCK.

For the next test, the target named is T6, PEAK1 (Homo sapiens, UniProt Q9H792).
T6 construct: purchased Reaction Biology (HotSpot contract assay)
Put plainly: HotSpot in vitro kinase radiometric assay. The test is classed as biochemical. The note with it: 10uM, ATP 30 uM, Data 1, Data 2; for remaining activity at 10 µM: read-out: % Enzyme Activity (relative to DMSO controls), PEAK1.

The target in another test is T7, FGR (Homo sapiens, UniProt P09769).
T7 construct: purchased Reaction Biology (HotSpot contract assay)
The test is described as follows: HotSpot in vitro kinase radiometric assay. The note with it: 10uM, ATP 50 uM, Data 1, Data 2; for remaining activity at 10 µM: read-out: % Enzyme Activity (relative to DMSO controls), FGR. The test is classed as biochemical.

In the next test the target is DDR1 (Homo sapiens, UniProt Q08345). The test is described as follows: HotSpot in vitro kinase radiometric assay. Conditions: 10uM, ATP 100 uM, Data 1, Data 2; for remaining activity at 10 µM: read-out: % Enzyme Activity (relative to DMSO controls), DDR1. Further details: purchased Reaction Biology (HotSpot contract assay). It is filed as biochemical.
For a further test, the system named is HSP90AA1. Conditions: average of reported values; ref ChEMBL23 (accessed: 23/08/2018); cited from earlier work.
A further test addresses T8, YES/YES1 (Homo sapiens, UniProt P07947).
T8 construct: purchased Reaction Biology (HotSpot contract assay)
The test is described as follows: HotSpot in vitro kinase radiometric assay. It is filed as biochemical. Conditions: 10uM, ATP 50 uM, Data 1, Data 2; for remaining activity at 10 µM: read-out: % Enzyme Activity (relative to DMSO controls), YES/YES1.

The next test has as its target T9, PDK4/PDKH4 (Homo sapiens, UniProt Q16654).
T9 construct: purchased Reaction Biology (HotSpot contract assay)
Put plainly: HotSpot in vitro kinase radiometric assay. It is filed as biochemical. Conditions: 10uM, ATP 30 uM, Data 1, Data 2; for remaining activity at 10 µM: read-out: % Enzyme Activity (relative to DMSO controls), PDK4/PDKH4. The method, then: (§4) Accordingly, we selected five additional representative HSP90 inhibitors, at least one from each chemical class, including both synthetic inhibitors and natural products. […]
as §3

The target of another test is T10, LYN B (Homo sapiens, UniProt P07948).
T10 construct: purchased Reaction Biology (HotSpot contract assay)
T10 sequence (P07948 1-491 isoform P07948-2): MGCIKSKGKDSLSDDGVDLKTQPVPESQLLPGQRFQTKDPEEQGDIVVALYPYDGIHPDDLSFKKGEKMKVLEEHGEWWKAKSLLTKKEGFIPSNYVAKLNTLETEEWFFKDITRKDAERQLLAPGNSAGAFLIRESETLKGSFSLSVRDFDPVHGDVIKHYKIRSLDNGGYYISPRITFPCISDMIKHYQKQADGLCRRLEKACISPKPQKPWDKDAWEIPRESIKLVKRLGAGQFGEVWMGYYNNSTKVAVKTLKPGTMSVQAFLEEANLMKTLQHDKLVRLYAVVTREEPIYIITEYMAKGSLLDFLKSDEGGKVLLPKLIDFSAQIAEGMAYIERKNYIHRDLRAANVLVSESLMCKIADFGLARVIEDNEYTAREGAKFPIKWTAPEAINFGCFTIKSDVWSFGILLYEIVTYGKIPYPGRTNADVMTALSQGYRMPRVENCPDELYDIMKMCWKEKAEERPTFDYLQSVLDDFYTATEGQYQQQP
The test is described as follows: HotSpot in vitro kinase radiometric assay. It is filed as biochemical. The note with it: 10uM, ATP 20 uM, Data 1, Data 2; for remaining activity at 10 µM: read-out: % Enzyme Activity (relative to DMSO controls), LYN B. The method, then: as §4, §3

The target in another test is T11, PDK2/PDHK2 (Homo sapiens, UniProt Q15119).
T11 construct: purchased Reaction Biology (HotSpot contract assay)
The test is described as follows: HotSpot in vitro kinase radiometric assay. The test is classed as biochemical. The note with it: 10uM, ATP 15 uM, Data 1, Data 2. The method, then: as §4, §3

A further test has as its target T12, c-Src (Homo sapiens, UniProt P12931).
T12 construct: purchased Reaction Biology (HotSpot contract assay)
Put plainly: HotSpot in vitro kinase radiometric assay. It is filed as biochemical. Conditions: 10uM, ATP 15 uM, Data 1, Data 2; for remaining activity at 10 µM: read-out: % Enzyme Activity (relative to DMSO controls), c-Src. The method, then:
as §4, §3

The target of a further test is T13, BLK (Homo sapiens, UniProt P51451).
T13 construct: purchased Reaction Biology (HotSpot contract assay)
Put plainly: HotSpot in vitro kinase radiometric assay. The note with it: 10uM, ATP 10 uM, Data 1, Data 2; for remaining activity at 10 µM: read-out: % Enzyme Activity (relative to DMSO controls), BLK. It is filed as biochemical. The method, then:
as §4, §3

The next test concerns the target T14, TRKC (Homo sapiens, UniProt Q16288).
T14 construct: purchased Reaction Biology (HotSpot contract assay)
The test is described as follows: HotSpot in vitro kinase radiometric assay. Conditions: 10uM, ATP 100 uM, Data 1, Data 2; for remaining activity at 10 µM: read-out: % Enzyme Activity (relative to DMSO controls), TRKC. The test is classed as biochemical.

A further test relates to HSP90AB1. Also on record: method as in ChEMBL23 (accessed: 23/08/2018). Conditions: average of reported values; ref ChEMBL23 (accessed: 23/08/2018); cited from earlier work.
Another test relates to TRAP1. Also on record: method as in ChEMBL23 (accessed: 23/08/2018). The note with it: average of reported values; ref ChEMBL23 (accessed: 23/08/2018); cited from earlier work.
Test [3] has as its target T15, 382 unique human kinases (Homo sapiens, UniProt P37173).
T15 construct: purchased Reaction Biology (HotSpot contract assay)
The test is described as follows: biochemical. It is filed as biochemical. The note with it: kinase TGFBR2; read-out: Control Compound IC50*.

Test [4] addresses T16, 382 unique human kinases (Homo sapiens, UniProt Q96QT4).
T16 construct: purchased Reaction Biology (HotSpot contract assay)
The test is described as follows: biochemical. Conditions: kinase TRPM7/CHAK1; read-out: Control Compound IC50*. The test is classed as biochemical.

Test [5] addresses T17, 382 unique human kinases (Homo sapiens, UniProt P27361).
T17 construct: purchased Reaction Biology (HotSpot contract assay)
Put plainly: biochemical. The test is classed as biochemical. Conditions: ERK1; read-out: Control Compound IC50*.

The target in test [6] is T18, 382 unique human kinases (Homo sapiens, UniProt Q9BYP7).
T18 construct: purchased Reaction Biology (HotSpot contract assay)
Put plainly: biochemical. Conditions: WNK3; read-out: Control Compound IC50*. It is filed as biochemical.

Like-named read-outs stand apart in the source and are kept apart here.

T5 sequence (P06239 whole entry): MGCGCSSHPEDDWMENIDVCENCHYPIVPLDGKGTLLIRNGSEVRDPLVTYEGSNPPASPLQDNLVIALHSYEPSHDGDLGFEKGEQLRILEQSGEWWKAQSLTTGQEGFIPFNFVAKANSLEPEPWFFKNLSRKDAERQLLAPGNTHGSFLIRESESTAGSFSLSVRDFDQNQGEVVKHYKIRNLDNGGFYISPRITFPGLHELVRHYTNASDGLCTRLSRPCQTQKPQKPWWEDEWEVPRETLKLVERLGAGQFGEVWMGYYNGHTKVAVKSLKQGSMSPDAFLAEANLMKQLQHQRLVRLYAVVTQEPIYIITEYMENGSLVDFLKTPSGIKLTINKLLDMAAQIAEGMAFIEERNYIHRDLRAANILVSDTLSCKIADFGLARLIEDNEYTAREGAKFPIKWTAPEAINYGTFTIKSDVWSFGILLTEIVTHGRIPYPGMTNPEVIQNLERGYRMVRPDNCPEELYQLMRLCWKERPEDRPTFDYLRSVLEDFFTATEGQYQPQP
T14 sequence (Q16288 32-839): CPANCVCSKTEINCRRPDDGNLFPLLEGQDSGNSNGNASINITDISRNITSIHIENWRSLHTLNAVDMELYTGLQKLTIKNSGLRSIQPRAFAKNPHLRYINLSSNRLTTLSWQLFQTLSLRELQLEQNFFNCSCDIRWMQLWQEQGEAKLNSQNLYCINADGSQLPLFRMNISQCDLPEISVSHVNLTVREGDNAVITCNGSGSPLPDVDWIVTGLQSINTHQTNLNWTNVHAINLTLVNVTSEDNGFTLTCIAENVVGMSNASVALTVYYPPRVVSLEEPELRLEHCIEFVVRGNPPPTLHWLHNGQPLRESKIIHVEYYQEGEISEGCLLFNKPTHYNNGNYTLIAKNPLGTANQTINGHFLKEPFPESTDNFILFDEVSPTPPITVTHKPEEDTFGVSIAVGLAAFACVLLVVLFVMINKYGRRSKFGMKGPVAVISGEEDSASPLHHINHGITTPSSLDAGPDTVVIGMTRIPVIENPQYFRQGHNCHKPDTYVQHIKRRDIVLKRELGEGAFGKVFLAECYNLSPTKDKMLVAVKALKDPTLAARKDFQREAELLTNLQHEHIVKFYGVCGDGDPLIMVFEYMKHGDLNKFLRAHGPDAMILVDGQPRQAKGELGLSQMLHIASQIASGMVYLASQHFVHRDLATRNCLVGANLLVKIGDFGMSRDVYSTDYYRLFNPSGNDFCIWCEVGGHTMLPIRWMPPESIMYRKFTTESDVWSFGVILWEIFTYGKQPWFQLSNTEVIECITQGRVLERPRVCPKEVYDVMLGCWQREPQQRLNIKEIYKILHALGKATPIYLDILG
T8 sequence (P07947 whole entry): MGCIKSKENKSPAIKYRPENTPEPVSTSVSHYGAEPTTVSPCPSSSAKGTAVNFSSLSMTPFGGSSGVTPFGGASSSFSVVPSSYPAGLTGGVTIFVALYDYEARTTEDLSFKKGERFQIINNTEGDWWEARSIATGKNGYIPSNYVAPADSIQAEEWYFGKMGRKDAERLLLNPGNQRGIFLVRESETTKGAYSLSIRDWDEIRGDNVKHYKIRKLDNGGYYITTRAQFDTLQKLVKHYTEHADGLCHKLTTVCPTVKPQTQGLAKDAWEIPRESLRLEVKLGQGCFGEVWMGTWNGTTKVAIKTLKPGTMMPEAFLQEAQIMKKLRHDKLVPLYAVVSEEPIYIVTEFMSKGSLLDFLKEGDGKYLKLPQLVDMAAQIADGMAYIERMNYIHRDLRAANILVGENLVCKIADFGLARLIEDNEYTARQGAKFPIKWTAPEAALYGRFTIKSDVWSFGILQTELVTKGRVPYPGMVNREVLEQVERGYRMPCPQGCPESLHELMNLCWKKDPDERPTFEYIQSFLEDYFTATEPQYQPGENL

With `COc1c(C)cnc(Cn2cnc3c(Cl)nc(N)nc32)c1C` [BIIB021], the “pACT(exp)” value was 6.8 in [1] (Endoplasmin (P14625)); 7.1 in test [1] (Heat shock protein 75 kDa, mitochondrial (Q12931)); 8.1 in [1] (Heat shock protein HSP 90-alpha (P07900)); 7.8 in test [1] (Heat shock protein HSP 90-beta (P08238)). The “number of off-target kinases experimentally identified, In vitro binding (KinomeSCAN)” value (“number” for short) in the test on 382 unique human kinases [2] amounted to 0.

With `CN(C)c1cc2c(cc1Sc1nc3c(N)nccc3n1CCNCC(C)(C)C)OCO2` [Debio-0932], the “% Enzyme Activity (relative to DMSO controls)” value worked out at 102.22% at FYN (FYN); 106.65% at ABL2/ARG (ABL2/ARG); 103.51% on TRKA (TRKA); 102.33% on PASK (PASK); 104.74% on ABL1 (ABL1); 109.56% at LCK (LCK). In addition, the “% Enzyme Activity (relative to DMSO controls)” value at PEAK1 (PEAK1) is 103.94%; at FGR (FGR) it was 101.88%; at DDR1 (DDR1), 85.1%; at YES/YES1 (YES/YES1) it was 102.37%; on PDK4/PDKH4 (PDK4/PDKH4), 111.02%; on LYN B (LYN B) it was 101.36%. Further, the “% Enzyme Activity (relative to DMSO controls)” value on PDK2/PDHK2 (PDK2/PDHK2) stood at 100.31%; on c-Src (c-Src), 109.48%; at BLK (BLK), 109.86%; at TRKC (TRKC), 97.21%. Also, the remaining activity at 10 µM on FYN worked out at 103%; at ABL2/ARG it was 107%; on TRKA it was 104%; at PASK, 101%; at ABL1, 111%; at LCK, 110%. Further, the remaining activity at 10 µM on PEAK1 is 104%; on FGR, 102%; at DDR1 it was 94.8%; at YES/YES1, 96%; on PDK4/PDKH4, 111%; at LYN B it was 101%. Further, the remaining activity at 10 µM on PDK2/PDHK2 (read-out: % Enzyme Activity (relative to DMSO controls), PDK2/PDHK2) is 108%; at c-Src, 107%; at BLK it was 110%; at TRKC, 93.3%. In the test with 16-kinase panel, the “activity against the 16-kinase panel” value is “inactive”. Further, the “pActivity, HSP90AA1” value with HSP90AA1 is reported as 7.48. Further, in the test with 382 unique human kinases [2], the “number” value was found to be 0. In the test on HSP90AB1, the “pActivity, HSP90AB1” value is reported as 7.42. The “pActivity, TRAP1” value in the test with TRAP1 is on record as 5.8.

By IC50 is commonly meant the concentration at which inhibition is half-maximal. `c1ccc2c(-c3cnn4cc(-c5ccc(N6CCNCC6)cc5)cnc34)ccnc2c1` [LDN193189]: the IC50 at 382 unique human kinases [3] is 165 nM.

On to `CCCCCCCCCCCCCCCCn1cc[n+](Cc2ccccc2)c1C` [NH125], for which, at 382 unique human kinases [4], the IC50 came out at 9950 nM.

`O=C(Nc1ccc2[nH]nc(-c3ccncc3)c2c1)[C@@H]1CCN(CC(=O)N2CCN(c3ccc(-c4ncccn4)cc3)CC2)C1` [SCH772984]: on 382 unique human kinases [5], the IC50 was 9.81 nM.

In the case of `CC1(C)CC(=O)c2c(C(F)(F)F)nn(-c3ccc(C(N)=O)c(N[C@H]4CC[C@H](O)CC4)c3)c2C1` [SNX-2112], the remaining activity at 10 µM was 113% at FYN; 114% at ABL2/ARG; 107% on TRKA; 101% at PASK; 109% at ABL1; 114% on LCK. Also, the remaining activity at 10 µM was 105% at PEAK1; 111% on FGR; 93.4% on DDR1; 101% at YES/YES1; 94.8% at PDK4/PDKH4; 107% on LYN B. In addition, the remaining activity at 10 µM worked out at 99% on c-Src, 116% on BLK and 93% at TRKC. Moreover, the “activity against the 16-kinase panel” value in the test on 16-kinase panel is “inactive”. The “number” value with 382 unique human kinases [2] stood at 0. Besides, in the test with HSP90AB1, the “pActivity, HSP90AB1” value is 8.34. In addition, in the test with TRAP1, the “pActivity, TRAP1” value was 6.12.

In the case of `O=C1NC(=O)c2c1c(-c1ccccc1Cl)cc1[nH]c3ccc(O)cc3c21` [Wee-1 Inhibitor], on 382 unique human kinases [6], the IC50 turned out to be 3570 nM.

The values are drawn from PMC8550792, “Evolution of kinase polypharmacology across HSP90 drug discovery” (Cell Chemical Biology, 2021).
